These results are taken from patent US8993565B2, “(6-oxo-1,6-dihydropyrimidin-2-yl)amide derivatives, preparation thereof and pharmaceutical use thereof as AKT(PKB) phosphorylation inhibitors” (Sanofi, priority 2009, dated 2015).

pIC50: −log10 of the molar value.

The test system of this experiment is AKT protein phosphorylated on serine 473 (P-AKT-S473). As to the kind of experiment: Study of pAKT expression in PC3 human prostate carcinoma cells measured by the MSD Multi-spot Biomarker Detection technique (Test B). Type of experiment: cell-based. The following applies: PC-3, inhibition of AKT phosphorylation (P-AKT-S473), MSD sandwich immunoassay, 1 to 2 h incubation, absolute IC50, mean of 2 experiments. The method, then: The inhibitory activity of the molecules on AKT phosphorylation is measured either by western blotting using the technique described below, or by the MSD Multi-spot Biomarker detection technique from Meso Scale Discovery also described below.
Study of pAKT Expression in PC3 Human Prostate Carcinoma Cells Measured by the MSD Multi-Spot Biomarker Detection Technique from Meso Scale Discovery (Test B):
The primary antibody specific for P-AKT-S473 (Kit #K151CAD) is coated on to an electrode in each well of the 96-well plates of the MSD, kit: after the addition of a protein lysate to each well, the signal is visualised by adding a secondary detection antibody labelled with an electrochemoluminescent compound. The procedure followed is that described in the kit.
On day 2, the cells are incubated in the presence or absence of the test products for 1 to 2 h at 37° C. in the presence of 5% of CO2. The molecules, diluted in dimethyl sulphoxide (DMSO Sigma #D2650), are added from a 20-times concentrated stock solution, the final percentage of DMSO being 0.1%. The molecules are tested either at a single concentration of less than or equal to 10 μM, or at increasing concentrations in a range that can extend from less than 1 nM to 10 μM.
After this incubation, the cells are lysed for the preparation of the proteins. […] At this stage, the plates containing the lysates can be stored at −20° C. or at −80° C.
The wells of the 96-well plates of the MSD kit are saturated for 1 h at ambient temperature with the blocking solution of the MSD kit. Four washes are carried out with 150 μl of Tris Wash Buffer of the MSD kit. The lysates previously prepared are transferred into the 96-well multi-spot plates of the MSD kit and incubated for 1 h at ambient temperature, with shaking. Four washes are carried out with 150 μl of Tris Wash Buffer of the MSD kit. 25 μl of the MSD sulfo-tag detection antibody solution are added to the wells and incubated for 1 h at ambient temperature, with shaking. Four washes are carried out with 150 μl of Tris Wash Buffer of the MSD kit. 150 μl of Read Buffer of the MSD kit are added to the wells and the plates are read immediately on the S12400 instrument from Meso Scale Discovery.
The instrument measures a signal for each well. Wells without cells and containing the lysis buffer serve to determine the background noise that will be subtracted from all the measurements (min). The wells containing cells in the absence of product and in the presence of 0.1% DMSO are considered to be the 100% signal (max). The percentage inhibition is calculated for each concentration of test product according to the following formula: (1-((test-min)(max-min)))×100.
2 independent experiments make it possible to calculate the mean of the IC50 values.
Take `COc1cccc2c1CCN2C(=O)Cc1nc(N2CCOCC2)cc(=O)[nH]1` [Example 141, 2-[2-(4-Methoxy-2,3-dihydroindol-1-yl)-2-oxoethyl]-6-morpholin-4-yl-3H-pyrimidin-4-one]: the negative-log IC50 (pIC50) (as a rule, the negative decadic logarithm of the IC50, by convention in mol/L) is 7.22. With `O=C(Cc1nc(N2CCOCC2)cc(=O)[nH]1)Nc1ccc(F)cn1` [Example 27, N-(5-fluoropyridin-2-yl)-2-[4-(morpholin-4-yl)-6-oxo-1,6-dihydropyrimidin-2-yl]acetamide] the figure was 7.15.

On to `O=C(Cc1nc(N2CCOCC2)cc(=O)[nH]1)Nc1cccc([N+](=O)[O-])c1O` [Example 151, N-(2-hydroxy-3-nitrophenyl)-2-[4-(morpholin-4-yl)-6-oxo-1,6-dihydropyrimidin-2-yl]acetamide], for which the pIC50 was 7.54. The compound `Cc1cc(F)ccc1NC(=O)Cc1nc(N2CCOCC2)cc(=O)[nH]1` [Example 31, N-(4-fluoro-2-methylphenyl)-2-[4-(morpholin-4-yl)-6-oxo-1,6-dihydropyrimidin-2-yl]acetamide] showed a pIC50 of 7.24.

`Cc1cccc2c1CCN2C(=O)Cc1nc(N2CCOCC2)cc(=O)[nH]1` [Example 100, 2-[2-(4-methyl-2,3-dihydro-1H-indol-1-yl)-2-oxoethyl]-6-(morpholin-4-yl)pyrimidin-4(3H)-one] had a negative-log IC50 (pIC50) of 8.52. Next, `N#Cc1cc(NC(=O)Cc2nc(N3CCOCC3)cc(=O)[nH]2)ccc1F` [Example 24, N-(3-cyano-4-fluorophenyl)-2-[4-(morpholin-4-yl)-6-oxo-1,6-dihydropyrimidin-2-yl]acetamide]: 6.61; `O=C(Cc1nc(N2CCOCC2)cc(=O)[nH]1)Nc1cccc2occc12` [Example 84, N-(1-benzofur-4-yl)-2-[4-(morpholin-4-yl)-6-oxo-1,6-dihydropyrimidin-2-yl]acetamide]: 7.77; `Cn1c(CC(=O)Nc2ccc(F)c(F)c2)nc(N2CCOCC2)cc1=O` [Example 78, N-(3,4-difluorophenyl)-2-[1-methyl-4-(morpholin-4-yl)-6-oxo-1,6-dihydropyrimidin-2-yl]acetamide]: 6.89. Next, `C[C@@H]1Cc2ccccc2N1C(=O)Cc1nc(N2CCOCC2)cc(=O)[nH]1` [Example 118, 2-{2-[(2R)-2-methyl-2,3-dihydro-1H-indol-1-yl]-2-oxoethyl}-6-(morpholin-4-yl)pyrimidin-4(3H)-one]: 7.92. Next, `O=C(Cc1nc(N2CCOCC2)cc(=O)[nH]1)N1CCc2cc(Cl)ccc21` [Example 134, 2-[2-(5-Chloro-2,3-dihydroindol-1-yl)-2-oxoethyl]-6-morpholin-4-yl-3H-pyrimidin-4-one]: 6.91; `CN(C)C[C@@H]1CN(C(=O)Cc2nc(N3CCOCC3)cc(=O)[nH]2)c2ccccc21` [Example 137, 2-(2-{(3R)-3-[(dimethylamino)methyl]-2,3-dihydro-1H-indol-1-yl}-2-oxoethyl)-6-(morpholin-4-yl)pyrimidin-4(3H)-one]: 7.17; `Cn1ccc2c(NC(=O)Cc3nc(N4CCOCC4)cc(=O)[nH]3)cccc21` [Example 99, N-(1-methyl-1H-indol-4-yl)-2-[4-(morpholin-4-yl)-6-oxo-1,6-dihydropyrimidin-2-yl]acetamide]: 6.18.

Turning to `CC1(C)CN(C(=O)Cc2nc(N3CCOCC3)cc(=O)[nH]2)c2ccccc21` [Example 154, 2-[2-(3,3-dimethyl-2,3-dihydro-1H-indol-1-yl)-2-oxoethyl]-6-(morpholin-4-yl)pyrimidin-4(3H)-one], the pIC50 was 7.55. With `CN(C)c1cccc(NC(=O)Cc2nc(N3CCOCC3)cc(=O)[nH]2)c1` [Example 4, N-[3-(dimethylamino)phenyl]-2-[4-(morpholin-4-yl)-6-oxo-1,6-dihydropyrimidin-2-yl]acetamide] the figure was 6.84; with `O=C(Cc1nc(N2CCOCC2)cc(=O)[nH]1)Nc1cc(Cl)c(F)c(Cl)c1` [Example 61, N-(3,5-dichloro-4-fluorophenyl)-2-[4-(morpholin-4-yl)-6-oxo-1,6-dihydropyrimidin-2-yl]acetamide], 7.11; with `C#Cc1cc(NC(=O)Cc2nc(N3CCOCC3)cc(=O)[nH]2)ccc1F` [Example 90, N-(3-ethynyl-4-fluorophenyl)-2-[4-(morpholin-4-yl)-6-oxo-1,6-dihydropyrimidin-2-yl]acetamide], 7.85.

`O=C(Cc1nc(N2CCOCC2)cc(=O)[nH]1)N1CCc2cc(F)ccc21` [Example 103, 2-[2-(5-Fluoro-2,3-dihydroindol-1-yl)-2-oxoethyl]-6-morpholin-4-yl-3H-pyrimidin-4-one] gave a pIC50 of 8.15. Next, `O=C(Cc1nc(N2CCOCC2)cc(=O)[nH]1)Nc1cccc(Br)c1O` [Example 142, N-(3-bromo-2-hydroxyphenyl)-2-[4-(morpholin-4-yl)-6-oxo-1,6-dihydropyrimidin-2-yl]acetamide]: 7.66; `O=C(Cc1nc(N2CCOCC2)cc(=O)[nH]1)Nc1ccccc1OCCN1CCCC1` [Example 112, 2-[4-(morpholin-4-yl)-6-oxo-1,6-dihydropyrimidin-2-yl]l-N-{2-[2-(pyrrolidin-1-yl)ethoxy]phenyl}acetamide]: 7.64; `CC(C)(C)c1cccc(NC(=O)Cc2nc(N3CCOCC3)cc(=O)[nH]2)c1` [Example 19, N-[3-(2-methylpropan-2-yl)phenyl]-2-[4-(morpholin-4-yl)-6-oxo-1,6-dihydropyrimidin-2-yl]acetamide]: 7.38.

The compound `O=C(Cc1nc(N2CCOCC2)cc(=O)[nH]1)Nc1ccc(F)cc1F` [Example 5, N-(2,4-difluorophenyl)-2-[4-(morpholin-4-yl)-6-oxo-1,6-dihydropyrimidin-2-yl]acetamide] had a pIC50 of 7.29.

`O=C(Cc1nc(N2CCOCC2)cc(=O)[nH]1)Nc1cccc(OC2CCCC2)c1` [Example 49, N-[3-(cyclopentyloxy)phenyl]-2-[4-(morpholin-4-yl)-6-oxo-1,6-dihydropyrimidin-2-yl]acetamide] gave a pIC50 of 6.84. Next, `Cn1c(CC(=O)Nc2ccc(F)c(I)c2)nc(N2CCOCC2)cc1=O` [Example 93, N-(3-iodo-4-fluorophenyl)-2-[1-methyl-4-(morpholin-4-yl)-6-oxo-1,6-dihydropyrimidin-2-yl]acetamide]: 7.20; `O=C(Cc1nc(N2CCOCC2)cc(=O)[nH]1)Nc1ccc(F)cc1Br` [Example 66, N-(2-bromo-4-fluorophenyl)-2-[4-(morpholin-4-yl)-6-oxo-1,6-dihydropyrimidin-2-yl]acetamide]: 6.88; `C[C@H]1Cc2ccccc2N1C(=O)Cc1nc(N2CCOCC2)cc(=O)[nH]1` [Example 117, 2-{2-[(2S)-2-methyl-2,3-dihydro-1H-indol-1-yl]-2-oxoethyl}-6-(morpholin-4-yl)pyrimidin-4(3 H)-one]: 7.72. Next, `Cn1c(CC(=O)Nc2cc(F)c(F)c(F)c2)nc(N2CCOCC2)cc1=O` [Example 98, 2-(1-methyl-4-morpholin-4-yl-6-oxo-1,6-dihydropyrimidin-2-yl)-N-(3,4,5-trifluorophenyl)acetamide]: 6.66. With `O=C(Cc1nc(N2CCOCC2)cc(=O)[nH]1)Nc1ccc(F)c(F)c1F` [Example 53, 2-[4-(morpholin-4-yl)-6-oxo-1,6-dihydropyrimidin-2-yl]-N-(2,3,4-trifluorophenyl)acetamide] the figure was 7.18; with `O=C(Cc1nc(N2CCOCC2)cc(=O)[nH]1)Nc1cccc(F)c1O` [Example 87, N-(3-fluoro-2-hydroxyphenyl)-2-[4-(morpholin-4-yl)-6-oxo-1,6-dihydropyrimidin-2-yl]acetamide], 7.12. Regarding `Cn1c(CC(=O)N2CCc3c(O)cccc32)nc(N2CCOCC2)cc1=O` [Example 109, 2-[2-(4-hydroxy-2,3-dihydro-1H-indol-1-yl)-2-oxoethyl]-3-methyl-6-(morpholin-4-yl)pyrimidin-4(3H)-one], the pIC50 was 7.37.

For `COCCOc1ccccc1NC(=O)Cc1nc(N2CCOCC2)cc(=O)[nH]1` [Example 108, N-[2-(2-methoxyethoxy)phenyl]-2-[4-(morpholin-4-yl)-6-oxo-1,6-dihydropyrimidin-2-yl]acetamide], the pIC50 was 7.25. The compound `O=C(Cc1nc(N2CCOCC2)cc(=O)[nH]1)Nc1ccc(F)c(C(F)F)c1` [Example 76] had a pIC50 of 7.11.
